Molecular target: T1, bradykinin B2 receptor (B2R) (Homo sapiens, UniProt P30411)
T1 construct: gene BDKRB2; B2R transfected in HEK293 cells
T1 sequence (P30411 1-391): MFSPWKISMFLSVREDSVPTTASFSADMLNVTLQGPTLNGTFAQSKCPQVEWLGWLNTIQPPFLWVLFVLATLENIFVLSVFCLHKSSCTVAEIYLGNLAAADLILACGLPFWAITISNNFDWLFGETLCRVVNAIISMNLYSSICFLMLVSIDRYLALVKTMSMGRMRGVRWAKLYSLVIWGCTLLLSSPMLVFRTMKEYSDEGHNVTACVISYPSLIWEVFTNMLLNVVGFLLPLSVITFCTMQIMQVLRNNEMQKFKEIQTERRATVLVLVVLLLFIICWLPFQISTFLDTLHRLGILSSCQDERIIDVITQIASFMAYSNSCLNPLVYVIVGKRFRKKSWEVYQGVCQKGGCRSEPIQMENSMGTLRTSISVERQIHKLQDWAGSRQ
Experiment: B2R-dependent ERK phosphorylation in transfected HEK293, blocked by the B2R antagonist HOE-140
Format: cell-based

CC/C=C\C/C=C\C/C=C\C/C=C\C/C=C\C/C=C\CCC(=O)O [DHA, docosahexaenoic acid]
B2R-dependent ERK phosphorylation in transfected HEK293, blocked by the B2R anta: EPA or DHA dependent ERK phosphorylation was inhibited by the selective B2R antagonist.
